How the values were obtained:
[1] = test system: late watergrass; test: Test Example 2: herbicidal activity, application during weed generation under submerged conditions (Table 17, symbol A); type: in vivo, late watergrass (Echinochloa oryzicola); settings: for herbicidal effect rating, A: late watergrass: application during weed generation, submerged conditions
How it was run: (§1)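 In this pot test, flooded alluvial soil (water depth 4 cm) holds all three species sown as a mixture. Once seedlings have one to two leaves, the compound's emulsion, thinned with water to the intended dose, is poured on the water; grading follows after three weeks on the earlier criteria.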

[2] = test system: oval-leafed pondweed; test: Test Example 2: herbicidal activity, application during weed generation under submerged conditions (Table 17, symbol C); type: in vivo, oval-leafed pondweed (Monochoria vaginalis); settings: for herbicidal effect rating, C: oval-leafed pondweed: application during weed generation, submerged conditions
How it was run: as §1

[3] = test system: Italian ryegrass; test: Test Example 4: herbicidal effect by soil treatment (Table 19, symbol K); type: in vivo, Italian ryegrass (Lolium multiflorum)
How it was run: (§2)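 Emulsion of test compound, water-diluted to predetermined amount, sprayed on soil after sowing (seed depth ~1.5 cm, sterilized diluvial soil). Greenhouse, 25–30° C. Effect graded at three weeks post-spray.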

[4] = test system: velvetleaf; test: Test Example 4: herbicidal effect by soil treatment (Table 19, symbol M); type: in vivo, velvetleaf (Abutilon theophrasti)
How it was run: as §2

[5] = test system: late watergrass; test: Test Example 1: herbicidal activity, application before weed generation under submerged conditions (Table 16, symbol A); type: in vivo, late watergrass (Echinochloa oryzicola)
How it was run: (§3)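 Submerged Wagner pots (alluvial soil, 4 cm water) sown with weed seeds and planted with 2.5-leaf rice seedlings; emulsifiable concentrate diluted in water applied to water surface on sowing day. Held in greenhouse at 25-30 °C; injury scored 0-5 by herbicidal rate after three weeks.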

[6] = test system: redroot pigweed; test: Test Example 5: herbicidal effect by foliage application, plastic box (Table 20, symbol N); type: in vivo, redroot pigweed (Amaranthus retroflexus); settings: foliage application
How it was run: (§4)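 Post-emergence foliar test in sterilized diluvial soil. Compound applied as water-diluted emulsion at a predetermined rate to 14-day-old plants; evaluation at three weeks.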

[7] = test system: barnyard grass; test: Test Example 4: herbicidal effect by soil treatment (Table 19, symbol H); type: in vivo, barnyard grass (Echinochloa crus-galli)
How it was run: as §2

[8] = test system: chickweed; test: Test Example 5: herbicidal effect by foliage application, plastic box (Table 20, symbol P); type: in vivo, common chickweed (Stellaria media); settings: foliage application
How it was run: as §4

[9] = test system: barnyard grass; test: Test Example 3: herbicidal effect by foliage application, Wagner pot (Table 18, symbol H); type: in vivo, barnyard grass (Echinochloa crus-galli); settings: for Herbicidal effect on H (barnyard grass), foliage application: amount of applied herbicide 320 g/ha
How it was run: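 Plants were sown in alluvial soil held under 0.1–0.5 cm standing water and grown 14 days in a greenhouse at 25–30 °C. An emulsifiable formulation, water-diluted to the set dose, was then sprayed onto the foliage, and effects were scored three weeks later using previously defined criteria.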

[10] = test system: Japanese bulrush; test: Test Example 1: herbicidal activity, application before weed generation under submerged conditions (Table 16, symbol B); type: in vivo, Japanese bulrush (Schoenoplectus juncoides)
How it was run: as §3

[11] = test system: green foxtail; test: Test Example 5: herbicidal effect by foliage application, plastic box (Table 20, symbol G); type: in vivo, green foxtail (Setaria viridis); settings: foliage application
How it was run: as §4

[12] = test system: persian speedwell; test: Test Example 4: herbicidal effect by soil treatment (Table 19, symbol R); type: in vivo, Persian speedwell (Veronica persica)
How it was run: as §2

[13] = test system: windgrass; test: Test Example 5: herbicidal effect by foliage application, plastic box (Table 20, symbol L); type: in vivo, windgrass (Apera spica-venti); settings: foliage application
How it was run: as §4

[14] = test system: chickweed; test: Test Example 4: herbicidal effect by soil treatment (Table 19, symbol P); type: in vivo, common chickweed (Stellaria media)
How it was run: as §2

[15] = test system: lambsquarters; test: Test Example 4: herbicidal effect by soil treatment (Table 19, symbol O); type: in vivo, lambsquarters (Chenopodium album)
How it was run: as §2

[16] = test system: persian speedwell; test: Test Example 5: herbicidal effect by foliage application, plastic box (Table 20, symbol R); type: in vivo, Persian speedwell (Veronica persica); settings: foliage application
How it was run: as §4

[17] = test system: windgrass; test: Test Example 4: herbicidal effect by soil treatment (Table 19, symbol L); type: in vivo, windgrass (Apera spica-venti); settings: amount of applied herbicide 320 g/ha
How it was run: as §2

[18] = application during weed generation under submerged conditions, amount of applied herbicide 320 g/ha
[19] = amount of applied herbicide 320 g/ha
[20] = 320 g/ha, evaluated 3 weeks after application
[21] = 320 g/ha, three weeks after application
[22] = amount of applied herbicide 296 g/ha
[23] = 296 g/ha, three weeks after application

SMILES: COCCOc1ccc(-c2oc3ccc(C)cc3c2-c2c(O)c(C)nn(C)c2=O)cc1 [9-063]
- herbicidal effect grade, A: late watergrass [1, 18]: 5 (Herbicidal rate of 90% or more (almost completely withered))
- herbicidal effect grade, C: oval-leafed pondweed [2, 18]: 4 (Herbicidal rate of 70% or more and less than 90%)
- K: Italian ryegrass, herbicidal effect grade [3, 19]: 5 (Herbicidal rate of 90% or more (almost completely withered))
- M: velvetleaf, herbicidal effect grade [4, 19]: 5 (Herbicidal rate of 90% or more (almost completely withered))
- Herbicidal effect, A: late watergrass [5, 19]: 5 (Herbicidal rate of 90% or more (almost completely withered))
- N (redroot pigweed) herbicidal effect grade [6, 20]: 5 (Herbicidal rate of 90% or more (almost completely withered))
- H: barnyard grass, herbicidal effect grade [7, 19]: 5 (Herbicidal rate of 90% or more (almost completely withered))
- P (chickweed) herbicidal effect grade [8, 20]: 5 (Herbicidal rate of 90% or more (almost completely withered))
- Herbicidal effect on H (barnyard grass), foliage application [9]: 5 (Herbicidal rate of 90% or more (almost completely withered))
- Herbicidal effect, B: Japanese bulrush [10, 19]: 5 (Herbicidal rate of 90% or more (almost completely withered))
- G (green foxtail) herbicidal effect grade [11, 20]: 5 (Herbicidal rate of 90% or more (almost completely withered))
- R: persian speedwell, herbicidal effect grade [12, 19]: 5 (Herbicidal rate of 90% or more (almost completely withered))
- L (windgrass) herbicidal effect grade [13, 20]: 4 (Herbicidal rate of 70% or more and less than 90%)
- P: chickweed, herbicidal effect grade [14, 19]: 4 (Herbicidal rate of 70% or more and less than 90%)
- O: lambsquarters, herbicidal effect grade [15, 19]: 5 (Herbicidal rate of 90% or more (almost completely withered))
- R (persian speedwell) herbicidal effect grade [16, 20]: 5 (Herbicidal rate of 90% or more (almost completely withered))

SMILES: C=CCOc1ccc(-c2oc3ccccc3c2-c2c(O)c(C)nn(C)c2=O)cc1 [8-004]
- herbicidal effect rating, A: late watergrass ([1]; AAH 320 g/ha): 3 (Herbicidal rate of 40% or more and less than 70%)
- herbicidal effect rating, C: oval-leafed pondweed ([2]; AAH 320 g/ha): 3 (Herbicidal rate of 40% or more and less than 70%)
- K: Italian ryegrass, herbicidal effect grade [3, 19]: 4 (Herbicidal rate of 70% or more and less than 90%)
- M: velvetleaf, herbicidal effect grade [4, 19]: 2 (Herbicidal rate of 20% or more and less than 40%)
- Herbicidal effect, A: late watergrass [5, 19]: 5 (Herbicidal rate of 90% or more (almost completely withered))
- H: barnyard grass, herbicidal effect grade [7, 19]: 4 (Herbicidal rate of 70% or more and less than 90%)
- Herbicidal effect on H (barnyard grass), foliage application [9]: 5 (Herbicidal rate of 90% or more (almost completely withered))
- Herbicidal effect, B: Japanese bulrush [10, 19]: 5 (Herbicidal rate of 90% or more (almost completely withered))
- herbicidal effect on green foxtail (G) [11, 21]: 3 (Herbicidal rate of 40% or more and less than 70%)
- R: persian speedwell, herbicidal effect grade [12, 19]: 3 (Herbicidal rate of 40% or more and less than 70%)
- herbicidal effect on windgrass (L) [13, 21]: 4 (Herbicidal rate of 70% or more and less than 90%)
- P: chickweed, herbicidal effect grade [14, 19]: 1 (Herbicidal rate of 5% or more and less than 20%)
- O: lambsquarters, herbicidal effect grade [15, 19]: 2 (Herbicidal rate of 20% or more and less than 40%)
- L: windgrass, herbicidal effect grade [17]: 0 (Herbicidal rate of 5% or less (almost no effect))
- herbicidal effect on persian speedwell (R) [16, 21]: 5 (Herbicidal rate of 90% or more (almost completely withered))

SMILES: CCCC(=O)Oc1c(C)nn(C)c(=O)c1-c1c(-c2ccccc2OC)sc2cc(OC)ccc12 [Compound No. 3-066, 5-(6-methoxy-2-(2-methoxyphenyl)benzo[b]thiophen-3-yl)-1,3-dimethyl-6-oxo-1,6-dihydropyridazin-4-yl=(n-butyrate)]
- herbicidal effect rating, A: late watergrass ([1]; AAH 296 g/ha): 3 (Herbicidal rate of 40% or more and less than 70%)
- herbicidal effect rating, C: oval-leafed pondweed ([2]; AAH 296 g/ha): 5 (Herbicidal rate of 90% or more (almost completely withered))
- K: Italian ryegrass, herbicidal effect grade [3, 22]: 4 (Herbicidal rate of 70% or more and less than 90%)
- M: velvetleaf, herbicidal effect grade [4, 22]: 0 (Herbicidal rate of 5% or less (almost no effect))
- Herbicidal effect, A: late watergrass [5, 22]: 5 (Herbicidal rate of 90% or more (almost completely withered))
- N: redroot pigweed, herbicidal effect grade [6, 23]: 5 (Herbicidal rate of 90% or more (almost completely withered))
- H: barnyard grass, herbicidal effect grade [7, 22]: 0 (Herbicidal rate of 5% or less (almost no effect))
- P: chickweed, herbicidal effect grade [8, 23]: 5 (Herbicidal rate of 90% or more (almost completely withered))
- herbicidal effect on barnyard grass (H) ([9]; 296 g/ha): 5 (Herbicidal rate of 90% or more (almost completely withered))
- Herbicidal effect, B: Japanese bulrush [10, 22]: 5 (Herbicidal rate of 90% or more (almost completely withered))
- G: green foxtail, herbicidal effect grade [11, 23]: 4 (Herbicidal rate of 70% or more and less than 90%)
- R: persian speedwell, herbicidal effect grade [12, 22]: 3 (Herbicidal rate of 40% or more and less than 70%)
- L: windgrass, herbicidal effect grade [13, 23]: 5 (Herbicidal rate of 90% or more (almost completely withered))
- P: chickweed, herbicidal effect grade [14, 22]: 4 (Herbicidal rate of 70% or more and less than 90%)
- O: lambsquarters, herbicidal effect grade [15, 22]: 0 (Herbicidal rate of 5% or less (almost no effect))
- R: persian speedwell, herbicidal effect grade [16, 23]: 1 (Herbicidal rate of 5% or more and less than 20%)

SMILES: CCCC(=O)Oc1c(C)nn(C)c(=O)c1-c1c(-c2ccc(F)cc2)sc2cc(C)c(C)cc12 [5-089]
- herbicidal effect rating, A: late watergrass ([1]; AAH 320 g/ha): 3 (Herbicidal rate of 40% or more and less than 70%)
- herbicidal effect rating, C: oval-leafed pondweed ([2]; AAH 320 g/ha): 0 (Herbicidal rate of 5% or less (almost no effect))
- K: Italian ryegrass, herbicidal effect grade [3, 19]: 0 (Herbicidal rate of 5% or less (almost no effect))
- M: velvetleaf, herbicidal effect grade [4, 19]: 0 (Herbicidal rate of 5% or less (almost no effect))
- Herbicidal effect, A: late watergrass [5, 19]: 3 (Herbicidal rate of 40% or more and less than 70%)
- H: barnyard grass, herbicidal effect grade [7, 19]: 0 (Herbicidal rate of 5% or less (almost no effect))
- herbicidal effect on barnyard grass (H) ([9]; 320 g/ha): 1 (Herbicidal rate of 5% or more and less than 20%)
- Herbicidal effect, B: Japanese bulrush [10, 19]: 0 (Herbicidal rate of 5% or less (almost no effect))
- herbicidal effect on green foxtail (G) [11, 21]: 0 (Herbicidal rate of 5% or less (almost no effect))
- R: persian speedwell, herbicidal effect grade [12, 19]: 0 (Herbicidal rate of 5% or less (almost no effect))
- herbicidal effect on windgrass (L) [13, 21]: 0 (Herbicidal rate of 5% or less (almost no effect))
- P: chickweed, herbicidal effect grade [14, 19]: 0 (Herbicidal rate of 5% or less (almost no effect))
- O: lambsquarters, herbicidal effect grade [15, 19]: 0 (Herbicidal rate of 5% or less (almost no effect))
- L: windgrass, herbicidal effect grade [17]: 4 (Herbicidal rate of 70% or more and less than 90%)
- herbicidal effect on persian speedwell (R) [16, 21]: 1 (Herbicidal rate of 5% or more and less than 20%)

SMILES: Cc1ccc2oc(-c3ccc4c(c3)OCCO4)c(-c3c(O)c(C)nn(C)c3=O)c2c1 [9-012]
- herbicidal effect rating, A: late watergrass ([1]; AAH 320 g/ha): 1 (Herbicidal rate of 5% or more and less than 20%)
- herbicidal effect rating, C: oval-leafed pondweed ([2]; AAH 320 g/ha): 5 (Herbicidal rate of 90% or more (almost completely withered))
- K: Italian ryegrass, herbicidal effect grade [3, 19]: 4 (Herbicidal rate of 70% or more and less than 90%)
- M: velvetleaf, herbicidal effect grade [4, 19]: 2 (Herbicidal rate of 20% or more and less than 40%)
- Herbicidal effect, A: late watergrass [5, 19]: 4 (Herbicidal rate of 70% or more and less than 90%)
- H: barnyard grass, herbicidal effect grade [7, 19]: 2 (Herbicidal rate of 20% or more and less than 40%)
- Herbicidal effect on H (barnyard grass), foliage application [9]: 4 (Herbicidal rate of 70% or more and less than 90%)
- Herbicidal effect, B: Japanese bulrush [10, 19]: 5 (Herbicidal rate of 90% or more (almost completely withered))
- herbicidal effect on green foxtail (G) [11, 21]: 2 (Herbicidal rate of 20% or more and less than 40%)
- R: persian speedwell, herbicidal effect grade [12, 19]: 4 (Herbicidal rate of 70% or more and less than 90%)
- herbicidal effect on windgrass (L) [13, 21]: 2 (Herbicidal rate of 20% or more and less than 40%)
- P: chickweed, herbicidal effect grade [14, 19]: 3 (Herbicidal rate of 40% or more and less than 70%)
- O: lambsquarters, herbicidal effect grade [15, 19]: 3 (Herbicidal rate of 40% or more and less than 70%)
- L: windgrass, herbicidal effect grade [17]: 0 (Herbicidal rate of 5% or less (almost no effect))
- herbicidal effect on persian speedwell (R) [16, 21]: 5 (Herbicidal rate of 90% or more (almost completely withered))
